The text below walks through data of ChEMBL document CHEMBL1201862, “PubChem BioAssay data set” (2004).

Test systems include SK-MEL-5; SNB-75; PC-3; HCT-116; SF-539; SK-OV-3; NCI-H226; UACC-257; RXF 393; HL-60; A498; DU-145; MDA-MB-231; NCI/ADR-RES; LOX IMVI; SNB-19; CAKI-1; MDA-MB-435; SF-268; Hs-578T.
Holding throughout (assay): growth of human tumour cells (NCI), 48 h

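Briefly, cells in 96-well plates were exposed to five compound concentrations for 48 h, and endpoints were estimated by linear interpolation. GI50 = concentration required for 50% inhibition of growth.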 Activity calls are given as the source filed them. No stated cut-off is given here; in the data, active = GI50 up to about 1.1 µM and inactive = higher. Bounds are passed on as bounds.

Consider `O=C(NNCC(O)COc1ccccc1)c1ccccc1` (stereo not drawn), for which the GI50 was 42 µM (inactive) with SK-MEL-5; > 100 µM (inactive) in the assay on SNB-75; > 100 µM (inactive) in the assay with PC-3; > 100 µM (inactive) in the assay on HCT-116; > 100 µM (inactive) in the assay with SF-539; > 100 µM (inactive) in the assay on SK-OV-3. Besides, the GI50 in the assay on NCI-H226, with UACC-257, in the assay on RXF 393, in the assay on HL-60, in the assay with A498 and with DU-145 was > 100 µM (inactive) throughout. In addition, the GI50 in the assay on MDA-MB-231, in the assay on NCI/ADR-RES, in the assay on LOX IMVI, with SNB-19, in the assay on CAKI-1 and in the assay with MDA-MB-435 was > 100 µM (inactive) each time.
As to `CC(=O)/N=C1\C=C(NC(C)=O)C(=O)c2ccccc21`, the GI50 with SK-MEL-5 was 1.64 µM (inactive); with SNB-75, 2.54 µM (inactive); in the assay on PC-3 it was 2.9 µM (inactive); in the assay on HCT-116 it was 1.49 µM (inactive); in the assay on SF-539, 2.37 µM (inactive); in the assay on SK-OV-3, 6.79 µM (inactive). For the same compound, the GI50 is 7.96 µM (inactive) in the assay on NCI-H226; 1.81 µM (inactive) in the assay on UACC-257; 3.18 µM (inactive) in the assay with SF-268; 2.21 µM (inactive) in the assay with RXF 393; 1.85 µM (inactive) in the assay on HL-60; 15.2 µM (inactive) in the assay with A498. The GI50 in the assay on NCI/ADR-RES is 2.51 µM (inactive); in the assay with LOX IMVI, 1.68 µM (inactive); in the assay on Hs-578T, 6.28 µM (inactive); in the assay with SNB-19 it was 3.03 µM (inactive); in the assay with CAKI-1 it was 1.95 µM (inactive); in the assay on MDA-MB-435 it was 1.82 µM (inactive).
Take `COc1cc2c[n+](C)c3c4cc(OC)c(OC)cc4c(OCc4ccccc4)cc3c2cc1OC`: the GI50 with SK-MEL-5 was 0.838 µM (active); in the assay with SNB-75, 0.199 µM (active); with PC-3, 0.877 µM (active); in the assay with HCT-116, 1.02 µM (active); in the assay on SF-539, 0.114 µM (active); in the assay on SK-OV-3, 11.7 µM (inactive). Besides, the GI50 in the assay on NCI-H226 was 0.231 µM (active); in the assay with UACC-257, 0.706 µM (active); with SF-268 it was 0.0432 µM (active); in the assay with RXF 393, 1.6 µM (inactive); in the assay on A498, 27.3 µM (inactive); with DU-145, 1.08 µM (active). The GI50 in the assay with MDA-MB-231 is 2.32 µM (inactive); with NCI/ADR-RES, > 100 µM (inactive); in the assay on LOX IMVI it was 1.31 µM (inactive); in the assay on SNB-19, 0.0681 µM (active); with CAKI-1 it was > 39.2 µM (inactive); with MDA-MB-435, 1.09 µM (active).
Regarding `CNc1ncnc2c1ncn2C1C=CC(COS(N)(=O)=O)C1` (stereo not drawn), the GI50 in the assay with SK-MEL-5, with SNB-75, with PC-3, in the assay on HCT-116, in the assay with SF-539 and in the assay on SK-OV-3 was > 100 µM (inactive) throughout. Also, the GI50 in the assay with UACC-257, in the assay with SF-268, in the assay on RXF 393, in the assay with HL-60, in the assay on A498 and in the assay with DU-145 was > 100 µM (inactive) each time. The GI50 in the assay with NCI/ADR-RES, in the assay with LOX IMVI, with Hs-578T, in the assay on SNB-19, with CAKI-1 and in the assay with MDA-MB-435 was > 100 µM (inactive) throughout.
On to `COc1ccc(C2c3cc4c(cc3C(O)C3CCC(=O)N23)OCO4)cc1` (stereo not drawn), for which the GI50 with SK-MEL-5 was > 100 µM (inactive); in the assay with SNB-75, 82.2 µM (inactive); in the assay with PC-3, > 100 µM (inactive); in the assay with HCT-116, > 100 µM (inactive); in the assay on SF-539, > 100 µM (inactive); with SK-OV-3, > 100 µM (inactive). The GI50 in the assay on NCI-H226, with UACC-257, in the assay on SF-268, with HL-60, in the assay with A498 and in the assay on DU-145 was > 100 µM (inactive) throughout. For the same compound, the GI50 in the assay on NCI/ADR-RES, in the assay on LOX IMVI, with Hs-578T, in the assay with SNB-19, with CAKI-1 and in the assay with MDA-MB-435 was > 100 µM (inactive) in each case.
On to `CCCNc1ncnc2c1ncn2C`, for which the GI50 with SK-MEL-5 was > 100 µM (inactive); with SNB-75 it was 38.5 µM (inactive); with PC-3, > 100 µM (inactive); in the assay on HCT-116 it was > 100 µM (inactive); with SF-539, 34.2 µM (inactive); with SK-OV-3, > 100 µM (inactive). Also, the GI50 was > 100 µM (inactive) in the assay with NCI-H226; > 100 µM (inactive) with UACC-257; > 100 µM (inactive) with RXF 393; 32.9 µM (inactive) in the assay on HL-60; 22.9 µM (inactive) in the assay on A498; 85.3 µM (inactive) with DU-145. For the same compound, the GI50 was 67.1 µM (inactive) with MDA-MB-231; 68.4 µM (inactive) with NCI/ADR-RES; 31 µM (inactive) with LOX IMVI; > 100 µM (inactive) in the assay with SNB-19; 36.1 µM (inactive) with CAKI-1; > 100 µM (inactive) with MDA-MB-435.
For the compound `CN(c1c(Cl)cccc1Cl)S(=O)(=O)c1ccccc1[N+](=O)[O-]`, the GI50 in the assay on SNB-75, in the assay with PC-3, in the assay on HCT-116, with SF-539, in the assay on SK-OV-3 and in the assay on NCI-H226 was > 100 µM (inactive) throughout. Moreover, the GI50 with UACC-257 was > 100 µM (inactive); in the assay on SF-268 it was > 100 µM (inactive); in the assay with RXF 393, > 100 µM (inactive); with HL-60 it was > 10 µM (inactive); in the assay on DU-145 it was > 100 µM (inactive); in the assay on NCI/ADR-RES it was > 100 µM (inactive). The GI50 in the assay with LOX IMVI, in the assay with Hs-578T, with SNB-19, in the assay on CAKI-1 and in the assay on MDA-MB-435 was > 100 µM (inactive) throughout.
For the compound `CC(=O)Nc1ccc(N2C(=O)/C(=C\c3cccc(Oc4ccccc4)c3)S(=O)(=O)C2c2ccccc2)cc1` (stereo not drawn), the GI50 is 57.5 µM (inactive) in the assay with SK-MEL-5; 81.3 µM (inactive) in the assay on SNB-75; 61.1 µM (inactive) with PC-3; 37.5 µM (inactive) in the assay on HCT-116; 24.3 µM (inactive) in the assay on SF-539; > 100 µM (inactive) in the assay on SK-OV-3. The GI50 in the assay on NCI-H226 was 66.2 µM (inactive); with UACC-257, > 100 µM (inactive); in the assay on RXF 393, > 100 µM (inactive); in the assay on HL-60 it was 30.3 µM (inactive); in the assay on A498 it was > 100 µM (inactive); in the assay on DU-145 it was 39.1 µM (inactive). Further, the GI50 with MDA-MB-231 was > 100 µM (inactive); with NCI/ADR-RES, 37.2 µM (inactive); in the assay with LOX IMVI it was 41 µM (inactive); with SNB-19, 90.2 µM (inactive); in the assay with CAKI-1 it was > 100 µM (inactive); with MDA-MB-435, 60.8 µM (inactive).
